From patent US12275721B2, “Indazole carboxamides as kinase inhibitors” (BRISTOL-MYERS SQUIBB COMPANY, priority 2019, dated 2025)
Where two headings read alike, the source gives them in different places.

What was measured:
[1] = system: MLKL phosphorylation in HT29-L23 human colorectal adenocarcinoma cells; assay: MLKL Phosphorylation High-Content Assay; assay type: cell-based; details: necroptosis induced with TNFα, SMAC mimetic and Z-VAD, 6 h, read-out: pMLKL (IC50)
[2] = molecular target: T1, His-GST-TVMV-hRIPK1(1-324) (Homo sapiens, UniProt Q13546); assay: RIPK1 HTRF Binding Assay; details: HTRF probe displacement, 1 h at rt
T1 construct: 1 nM His-GST-TVMV-hRIPK1(1-324) in FRET Buffer; made in house; host or cells: Spodoptera frugiperda (Sf9) insect cells, baculovirus (Bac-to-Bac)
T1 sequence (Q13546 1-324): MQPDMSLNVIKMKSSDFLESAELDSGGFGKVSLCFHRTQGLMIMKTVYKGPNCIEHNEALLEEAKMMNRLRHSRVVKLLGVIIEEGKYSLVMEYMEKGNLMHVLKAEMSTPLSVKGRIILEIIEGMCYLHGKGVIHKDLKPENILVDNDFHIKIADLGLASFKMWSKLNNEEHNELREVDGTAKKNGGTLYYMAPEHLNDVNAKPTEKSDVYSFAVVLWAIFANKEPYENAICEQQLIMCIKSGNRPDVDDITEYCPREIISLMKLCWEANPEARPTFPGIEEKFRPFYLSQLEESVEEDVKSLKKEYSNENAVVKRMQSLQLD
Description: A solution was prepared containing 0.2 nM Anti GST-Tb (Cisbio, 61GSTTLB), 90.6 nM probe and 1 nM His-GST-TVMV-hRIPK1(1-324) in FRET Buffer (20 mM HEPES, 10 mM MgCl2, 0.015% Brij-35, 4 mM DTT, 0.05 mg/mL BSA). Using Formulatrix Tempest, the detection antibody/enzyme/probe solution ([…]) was dispensed into wells of a 1536 plate (Black Low Binding Polystyrene 1536 Plate (Corning, 3724)) containing 10 nL of compounds of interest at appropriate concentration in DMSO. The plate was incubated at rt for 1 h. FRET was measured using the EnVision plate reader (Excitation: 340 nm, Emission: 520 nm/[…]). Total signal (0% inhibition) was calculated from wells containing 10 nL DMSO only.
Cloning and Baculovirus Expression of RIPK1 Construct
The coding region of human RIPK1(1-324) flanked by NdeI site at 5′ end and stop codon TGA and XhoI site at 3′ end was codon optimized and gene synthesized at GenScript USA Inc. (Piscataway, NJ) and subcloned into a modified pFastBac1 vector (Invitrogen, Carlsbad, CA) with N-terminal His-GST-TVMV tag, to generate His-GST TVMV-hRIPK1(1-324)-pFB. The fidelity of the synthetic fragment was confirmed by sequencing. Baculovirus was generated for the construct using the Bac-to-Bac baculovirus expression system (Invitrogen) according to the manufacturer's protocol. Briefly, recombinant bacmid was isolated from transformed DH10Bac E. coli competent cells 20 (Invitrogen) and used to transfect Spodoptera frugiperda (Sf9) insect cells (Invitrogen). Baculovirus was harvested 72 hours post transfection and a virus stock was prepared by infecting fresh Sf9 cells at a 1/1000 (v/v) ratio for 66 hours. For large scale protein production, Sf9 cells (Expression System, Davis, CA) grown in ESF921 insect medium (Expression System) at 2×10^6 cells/ml were infected with virus stock at a 1/100 (v/v) ratio for 66 hours. The production was carried out either at a 10 L scale in a 22 L cellbag (GE Healthcare Bioscience, Pittsburgh, PA) or at a 20 L scale in a 50 L cellbag using WAVE-Bioreactor System 20/50 (GE Healthcare Bioscience). The infected cells were harvested by centrifugation at 2000 rpm for 20 min at 4° C. in a SORVALL® RC12BP centrifuge. The cell pellets was stored at −70° C. before protein was purified.
Purification of His-GST-TVMV-hRIPK1(1-324)
RIPK1 containing cell paste was resuspended in 50 mM Tris pH 7.5, 150 mM NaCl, 10 mM imidazole, 5% glycerol, 5 mM MgSO4, 1 mM TCEP, 25 U/ml Benzonase, and Complete Protease Inhibitor tablets (1/50 ml, Roche Diagnostics, Indianapolis, IN). The cells were lysed by nitrogen cavitation using an unstirred pressure vessel @ 525 PSI (Parr Instrument Company, Moline, IL). The suspension was clarified by centrifugation at 136,000×g for 40 min, at 4° C. The lysate was decanted from the pellet and passed through a 5 ml NiNTA Superflow cartridge (Qiagen, Valencia, CA) using an AKTA Pure (GE Healthcare). Column was eluted with 10 CV linear gradient into 50 mM Tris 7.5, 150 mM NaCl, 500 mM imidazole, 5% glycerol, 1 mM TCEP. Peak fractions were pooled and loaded directly onto 5 ml GSTrap 4B column (GE Healthcare). Column was washed with 50 mM Tris 7.0, 150 mM NaCl, […], 1 mM DTT and eluted in 10 CV linear gradient into 50 mM Tris 8.0, 150 mM NaCl, 20 mM reduced glutathione, 50% glycerol, 1 mM DTT. Fractions identified by SDS-PAGE as containing RIPK1 were pooled and concentrated using 30 kDa MWCO spin concentrators (Amicon Ultra-15, Millipore, Billerica, MA) and loaded onto a HiLoad 26/600 Superdex 200 column (GE Healthcare) equilibrated in 25 mM Tris 7.5, 150 mM NaCl, 2 mM TCEP, […]. The RTPK1 protein eluted as a dimer off the SEC column. The yield was ˜8 mg/L with a purity […] as determined by Coomassie stain SDS-PAGE gel analysis. […] Protein was aliquoted and stored at −80° C. Using these assays, the IC50 values of the following compounds were determined.

Molecule: CNC(=O)c1n[nH]c2cc(-c3nc(C(=O)NCCC(C)c4ccccc4)c(C)n3C)ccc12 (stereo not shown) [Example 32, 6-(1,5-dimethyl-4-((3-phenylbutyl)carbamoyl)-1H-imidazol-2-yl)-N-methyl-1H-indazole-3-carboxamide]
- IC50 ([1]; Homo sapiens): 460 nM
- IC50 [2]: 230 nM

Molecule: CNC(=O)c1n[nH]c2cc(-c3nc(C(=O)NCC[C@@H](O)c4ccc(Cl)cc4)c(C)n3C)ccc12 [Example 33, (R)-6-(4-((3-(4-chlorophenyl)-3-hydroxypropyl)carbamoyl)-1,5-dimethyl-1H-imidazol-2-yl)-N-methyl-1H-indazole-3-carboxamide]
- IC50 ([1]; Homo sapiens): 2200 nM
- IC50 [2]: 570 nM

Molecule: CNC(=O)c1n[nH]c2cc(-c3nc(C(=O)NCC[C@H](O)c4ccc(Cl)cc4)c(C)n3C)ccc12 [Example 34, (S)-6-(4-((3-(4-chlorophenyl)-3-hydroxypropyl)carbamoyl)-1,5-dimethyl-1H-imidazol-2-yl)-N-methyl-1H-indazole-3-carboxamide]
- IC50 ([1]; Homo sapiens): 1700 nM
- IC50 [2]: 760 nM

Molecule: CNC(=O)c1n[nH]c2cc(-c3nc(C(=O)NCc4cc(C(F)(F)F)ccc4F)c(C)n3C)ccc12 [Example 35, 6-(4-((2-fluoro-5-(trifluoromethyl)benzyl)carbamoyl)-1,5-dimethyl-1H-imidazol-2-yl)-N-methyl-1H-indazole-3-carboxamide]
- IC50 ([1]; Homo sapiens): 890 nM
- IC50 [2]: 200 nM

Molecule: (S)-6-(5-((3-(4-chlorophenyl)-3-hydroxypropyl)carbamoyl)-4-methylthiophen-2-yl)-N-methyl-1H-indazole-3-carboxamide [Example 13]
- IC50 [1]: 23 nM
- IC50 [2]: 10 nM
